# Measurements from patent US20090123445A1, “Surfactin-Containing Compositions for Controlling Scab Disease in Agricultural Products” (priority 2005, published 2009).
# Like-named read-outs stand apart in the source and are kept apart here. Numbered stars: 1 amine (or outer) side, 2 acyl side, 3 side chain; on linkers, the order of the positions; unused ones are H or OH. Bridge positions count the residues as written; N and C are the ends. Square brackets hold non-standard residues; d marks the D form. Peptide text beside a SMILES is read from it. X1 = CC(C)CCCCCCCCC[C@H](CC(=O)[*:1])O[*:2]
# How the values were obtained:
# [1] = system: Streptomyces turgidiscabies 91SY-12; assay: Antibacterial activity against potato scab pathogen: surfactin sodium in agar medium; assay type: cell-based; details: 30° C., 3 days
# Procedure: Each agar medium was smeared with a spore suspension of the potato scab pathogen Streptomyces turgidiscabies 91SY-12 (hereinafter referred to as “the strain 91SY-12”) and incubated at 30° C. for 3 days.
# [2] = system: Streptomyces turgidiscabies 91SY-12; details: 10 mg/ml in methanol, 30° C., 11 days
# Excerpt: In the same manner as shown in Example 2, the agar medium was smeared with a spore suspension of the strain 91SY-12, and 4 paper disks (8 mm diameter) were placed thereon.
# [3] = system: Streptomyces turgidiscabies 91SY-12; details: 50 μl per paper disk, 30° C., 6 days
# [4] = system: plant pathogens; details: surfactin alone; reported in JP 06-135811 A; cited from earlier work
Compound,inhibition of spore formation ([1]; 10 μg/ml in agar medium),inhibition of spore formation ([1]; 50 μg/ml in agar medium),inhibition of spore formation ([1]; 100 μg/ml in agar medium),inhibition of spore formation ([2]; 10 μl per paper disk),inhibition of spore formation ([2]; 50 μl per paper disk),inhibition of spore formation ([2]; 100 μl per paper disk),inhibitory effect on spore formation ([3]; 0.01 mg/ml in methanol),inhibitory effect on spore formation ([3]; 0.1 mg/ml in methanol),inhibitory effect on spore formation ([3]; 1.0 mg/ml in methanol),antibacterial action against plant pathogens [4]
CC(C)CCCCCCCCC[C@@H]1CC(=O)N[C@@H](CCC(=O)O)C(=O)N[C@@H](CC(C)C)C(=O)N[C@H](CC(C)C)C(=O)N[C@@H](C(C)C)C(=O)N[C@@H](CC(=O)O)C(=O)N[C@H](CC(C)C)C(=O)N[C@@H](CC(C)C)C(=O)O1 [surfactin sodium] (EL[dL]VD[dL]L; linker N-C via X1),tendency to inhibit spore formation,tendency to inhibit spore formation,tendency to inhibit spore formation,–,–,–,–,–,–,–
surfactin,–,–,–,strongly inhibited,strongly inhibited,strongly inhibited,no inhibitory effect on spore formation,"inhibited, albeit weakly",inhibited strongly,no antibacterial action
